Laboratory results as given in US10898459B2, “Method of treating chronic kidney disease” (Panion & BF Biotech Inc., priority 2006, dated 2021).
Marks after values point to notes of the source that are not given here.

Tested on: patients with end stage renal disease (ESRD) on hemodialysis
Test: Randomized, double-blind, placebo-controlled, dose-ranging study of ferric citrate on serum phosphate, calcium and Ca x PO4
Assay type: in vivo, human
Settings: for Serum Ca: Linear Regression: N.S.: Not Significant
Experimental: Ferric citrate is supplied in 500 mg capsules, whereas the placebo will be provided in identical-looking capsules (indistinguishable from those containing the active drug); the placebo capsules will contain sorbitol and colorant to match the powder color of the active capsules. The placebo capsule shells will be identical to the active capsule shells.
An non-limiting example of a dosing regimen is provided below. This is not meant to limit the invention as to how an effective amount of ferric citrate is selected, or the form in which it is provided or the frequency of administering the composition per day. The following merely illustrates how ferric citrate and placebo may be administered; e.g., as 500 mg capsules of identical appearance. All patients may receive (in a blinded fashion) 4 capsules with each of three meals, on a daily basis, for 28 days. Patients will be instructed to take the study medication within 10 minutes of finishing their meals (breakfast, lunch, and dinner).
Each patient's participation in the trial lasts for up to 8 weeks: the screening period (approximately 1-2 weeks), a 1-2 week washout, and 4 weeks of treatment with study medication.
The change in serum PO4 concentration at Days 14 and 28 from baseline.
The change in serum calcium concentration at Days 14 and 28 from baseline.
The change in the Ca′PO4 product at Days 14 and 28 from baseline.
Objectives: (1) To determine the effect of ferric citrate at doses of 2, 4 and 6 g daily, administered TID (three times a day), for 28 days on serum phosphate (PO4) levels in patients with end stage renal disease (ESRD). (2) To evaluate the safety of ferric citrate at doses of 2, 4, 6 g daily, administered TID, for 28 days in patients with ESRD.
Study Design: Randomized, double-blind, placebo-controlled, dose-ranging study to assess the effect of ferric citrate on serum phosphate concentrations in patients with ESRD on hemodialysis. Patients are assessed at Study Days 14 and 28 for effectiveness as measured by serum phosphate concentrations. Patients who received one or more doses of study medication are also assessed for safety.
Study Duration: 8 weeks (including the screening period, 2 weeks washout, 4 weeks treatment)
Ferric citrate is administered orally, and is given equally three times a day.

[1] = 2 g/day (N = 31), Day 0 (baseline)
[2] = 4 g/day (N = 32), Day 0 (baseline)
[3] = 6 g/day (N = 32), Day 0 (baseline)
[4] = 6 g/day (N = 32), Day 28, P < 0.05 baseline change vs placebo
[5] = at 0, 2, and 6 gm/day, TID immediately after meals, oral

## ferric citrate
[1]
  Serum [Ca]: 8.78 ± 0.981 mg/dL
  Serum [PO4]: 7.1 ± 1.23 mg/dL
  [Ca] * [PO4]: 62.9 ± 13.25 (mg/dL)^2
2 g/day (N = 31), Day 14
  Serum [Ca]: 9.01 ± 1.232 mg/dL
  Serum [PO4]: 6.7 ± 1.50 mg/dL
  [Ca] * [PO4]: 60.3 ± 16.50 (mg/dL)^2
2 g/day (N = 31), Day 28
  Serum [Ca]: 9.00 ± 0.953 mg/dL
  Serum [PO4]: 6.9 ± 2.22 mg/dL
  [Ca] * [PO4]: 61.7 ± 21.25 (mg/dL)^2
[2]
  Serum [Ca]: 9.02 ± 0.913 mg/dL
  Serum [PO4]: 7.1 ± 1.27 mg/dL
  [Ca] * [PO4]: 63.5 ± 10.69 (mg/dL)^2
4 g/day (N = 32), Day 14
  Serum [Ca]: 9.47 ± 0.990 mg/dL
  Serum [PO4]: 6.4 ± 1.56 mg/dL
  [Ca] * [PO4]: 59.9 ± 13.89 (mg/dL)^2
4 g/day (N = 32), Day 28
  Serum [Ca]: 9.29 ± 0.960 mg/dL
  Serum [PO4]: 6.0 ± 1.33 mg/dL
  [Ca] * [PO4]: 55.4 ± 13.36 (mg/dL)^2
[3]
  Serum [Ca]: 8.99 ± 0.812 mg/dL
  Serum [PO4]: 7.3 ± 1.33 mg/dL
  [Ca] * [PO4]: 65.8 ± 12.19 (mg/dL)^2
6 g/day (N = 32), Day 14
  Serum [Ca]: 9.13 ± 0.909 mg/dL
  Serum [PO4]: 6.3 ± 1.72 mg/dL
  [Ca] * [PO4]: 57.5 ± 16.27 (mg/dL)^2
6 g/day (N = 32), Day 28
  Serum [Ca]: 9.26 ± 0.865 mg/dL
[4]
  Serum [PO4]: 5.8 ± 1.76 mg/dL
  [Ca] * [PO4]: 54.1 ± 17.68* (mg/dL)^2
6 gm/day dose at both 14 and 28 days
  change in Ca*PO4 levels: decreased and were statistically significant
Day 0
  Serum Ca: Dose Response: No
Day 14
  Ca × PO4: Linear Regression P: P = 0.0401
  Ca × PO4: Statistical Significant: No
  Serum Ca: Statistical Significant: No
  Serum PO4: Statistical Significant: No
  Serum Ca: Linear Regression: N.S.
Day 14, placebo, 2, 4, 6 g/day
  Ca × PO4: Dose Response: Yes
  Serum Ca: Dose Response: No
  Serum PO4: Dose Response: No
Day 28
  Ca × PO4: Linear Regression P: P = 0.0158
  Ca × PO4: Statistical Significant: Yes (6 g/day)
  Serum Ca: Statistical Significant: No
  Serum PO4: Linear Regression P: P = 0.0073
  Serum PO4: Statistical Significant: Yes (6 g/day)
  Serum Ca: Linear Regression: N.S.
Day 28, placebo, 2, 4, 6 g/day
  Ca × PO4: Dose Response: Yes
  Serum Ca: Dose Response: No
  Serum PO4: Dose Response: Yes
[5]
  change in Ca*PO4: decrease
  change in serum PO4: decrease
During the 28 days, 2, 4, and 6 gm/day
  change in serum calcium level: No significant change
Patients with ESRD
  ability to lower the serum phosphate levels: demonstrated
